Assay results published in BindingDB's records for doi:10.1021/acs.jmedchem.5b00079 (Saarland University and Helmholtz Institute For …, 2015).
pIC50: −log10 of the molar value.

Target: T1, Cytochrome P450 11B1, mitochondrial (Homo sapiens, UniProt P15538)
T1 sequence (P15538 whole entry): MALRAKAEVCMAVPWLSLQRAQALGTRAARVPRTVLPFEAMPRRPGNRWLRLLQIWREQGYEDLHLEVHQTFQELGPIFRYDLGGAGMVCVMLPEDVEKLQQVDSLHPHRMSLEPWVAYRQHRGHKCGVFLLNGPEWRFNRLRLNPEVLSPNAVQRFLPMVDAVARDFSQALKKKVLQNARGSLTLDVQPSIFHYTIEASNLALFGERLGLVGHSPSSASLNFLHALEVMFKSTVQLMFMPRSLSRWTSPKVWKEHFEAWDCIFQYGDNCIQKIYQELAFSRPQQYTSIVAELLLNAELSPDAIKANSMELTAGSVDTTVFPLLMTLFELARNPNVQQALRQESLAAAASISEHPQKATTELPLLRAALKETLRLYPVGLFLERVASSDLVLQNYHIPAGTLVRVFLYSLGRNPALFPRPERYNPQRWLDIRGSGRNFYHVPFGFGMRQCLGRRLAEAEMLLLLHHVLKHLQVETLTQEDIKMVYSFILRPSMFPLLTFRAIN
Experiment: Inhibition of human CYP11B1 expressed in V79 MZh cells using [14C]-deoxycorticosterone substrate incubated for 6 hrs by HPTLC method

pIC50: 4.53
Structure (SMILES): Cc1nnc2n1-c1c(F)cc(-c3cncc(F)c3)cc1CC2
